Here are results for 2 compounds from the NIST ThermoML archive (doi:10.1016/j.jct.2017.05.026).

The nature of data set [1]: xn = mol fraction of the nth substance listed. The conditions noted are these: 298 K, 100 kPa, Crystal, X-ray diffraction.
Data set [2] is described as follows: excess molar enthalpy (molar enthalpy of mixing); xn = mol fraction of the nth substance listed. The conditions noted are these: 298 K, 100 kPa, Crystal, Calvet calorimetry.

Each structure is given as a SMILES string. ± gives the expanded uncertainty stated by the source.

By mass density is commonly meant the mass of a sample divided by its volume.

As to `[O-2].[O-2].[Th+4]` [thorium dioxide] + [O-2].[O-2].[U+4], the mass density was determined as 10730 ± 90 kg/m3 in data set [1] (x1 = 0.2209), 10510 ± 90 kg/m3 in data set [1] (x1 = 0.4319) and 10070 ± 90 kg/m3 in data set [1] (x1 = 0.7519). Also, the excess molar enthalpy is -1.65 ± 0.765 kcal/mol in data set [2] (x1 = 0.2209), 0.37 ± 1.12 kcal/mol in data set [2] (x1 = 0.4319) and -0.282 ± 0.669 kcal/mol in data set [2] (x1 = 0.7519).
For the compound `[O-2].[O-2].[Zr+4]` [zirconium oxide] + [O-2].[O-2].[U+4], the results for the mass density in data set [1] (x1 = 0.0847), in data set [1] (x1 = 0.1557) and in data set [1] (x1 = 0.2937) were 10630 ± 90 kg/m3, 10260 ± 90 kg/m3 and 9570 ± 70 kg/m3, respectively. In addition, the excess molar enthalpy is -2.18 ± 1 kcal/mol in data set [2] (x1 = 0.0847), -2.12 ± 0.837 kcal/mol in data set [2] (x1 = 0.1557) and 0.194 ± 0.765 kcal/mol in data set [2] (x1 = 0.2937).
